In patent publication US8470381B2, “Spinosyn antifouling compositions, methods of use thereof and articles protected from attachment of biofouling organisms” (Entarco S.A., priority 2008, dated 2013):
Several values for one entry are separate records, joined by “and”; a condition that tells them apart may be missing. Equal values may be shown once. Entries after “also recorded” stand apart in the source; their conditions may differ.

How the values were obtained:
[1] = test system: Aeromonas sp (Ae); assay: Agar diffusion antimicrobial assay against marine bacteria associated with Balanus amphitrite; assay type: cell-based; details: isolate Ae1, 24 hours
Method: (§1) The effect of spinosad as a bacteriostatic compound was tested against four bacterial species using standard agar diffusion techniques, as described by Avelin et al., J. Chem. Ecol., 19(10), 2155-67 (1993). The bacteria used in the test were as follows: Aeromonas sp (Ae); Alcaligenes sp (Al); Flavobacterium sp (F); and Vibrio sp (V);
(§2) The agar diffusion technique follows the original method by Acar (1980). In a sterilized petri dish 1 ml of 12 hour old nutrient broth culture, comprising of 3.7% of marine broth in distilled water, of each marine bacterial species was transferred along with 20 ml of antibiotic agar medium.
(§3) Sterilized Whatman No. 1 paper discs (6.25 mm diameter) were loaded with the test solution (2.4% w/w Tracer in distilled water) at concentrations calculated in pure spinosad ranging from 10^−1 mg/10 μl to 10^−4 mg/10 μl. Control discs were loaded with only the vehicle. After 24 hours of exposure to the test solution, the zone of inhibition, i.e. the area around the disc devoid of marine bacterial growth was measured by determining the distance from the edge of the disc to the edge of the area showing no bacterial growth (mm).

[2] = test system: Alcaligenes sp (Al); assay: as above; assay type: cell-based; details: 24 hours
Method: as §1, §2, §3

[3] = test system: Flavobacterium sp (F); assay: as above; assay type: cell-based; details: 24 hours
Method: as §1, §2, §3

[4] = test system: Vibrio sp (V); assay: as above; assay type: cell-based; details: 24 hours
Method: as §1, §2, §3

[5] = test system: barnacle cyprids (Balanus amphitrite Darwin); assay: Barnacle cyprid settlement assay and EC50 determination; assay type: in vivo; details: for % of set: dishes a, b, c and Total (mean), control mean 78
Description: The barnacle, Balanus amphitrite Darwin, is the most ubiquitous hard fouling organism found in all marine ecosystems, particularly in ports visited by commercial shipping. The methods used in this evaluation have been described in detail in a number of publications (Rittschof D, Clare A S, Gerhart D J, Avelin Mary, Bonavetura J (1991) Barnacle in vitro assays for biologically active substances: toxicity and settlement assays using mass cultured Balanus amphitrite amphitrite Darwin. Biofouling 6:115-122.
The barnacle adults are cultured in the laboratory and allowed to spawn naturally. The larvae are harvested and grown in artificial culture systems until they reach the cyprid stage at which time the larvae become competent to attach to surfaces. Once attached, the cyprids transform into a pinhead barnacle, thus becoming permanently attached to the surface.
The sample solution tested was a 23.2% w/w solution of Tracer in distilled water (equivalent to 10% w/w in pure spinosad or 100 mg spinosad/ml). The sample was stirred prior to making serial dilutions.
The data are summarized in the Tables 2 and 3 below along with the calculations for the EC50. […] Thereafter, there was dose dependent attachment from 10^−5 and at lower concentrations, only reaching control values at […]. The EC50 calculation via probit analysis show an EC50 of 7×10^−8 mg/ml.
Additional notes to the data below: 1. Set means the total number of cyprid larvae that have settled and attached on the surface of the petri dish. 2. Non-Set means the total number of cyprids that remain swimming in the seawater and not settled on the surface. 3. Data are expressed as the percentage of cyprids that settled on the surface. 4. Data are summarized and the mean, standard deviation (SD) and the standard error of the mean (SE) are calculated for samples. 5. Tests were conducted in replicates of three dishes per study group; each dish containing anywhere from 75 to 100 cyprids.

[6] = test system: Dunaliella tertiolecta; assay: Inhibition of the growth of the fouling microalgae in flask culture; assay type: cell-based; details: 10-^2 to 10^−9 mg spinosad/ml; cells counted each day
Method: A water emulsion containing 23.2% w/w Tracer®=10% spinosad was used at the start of this assay. Dunaliella tertiolecta was maintained in stock cultures in 20 ml test tubes as seed cultures and maintained on seven day transfer cycle. The marine micro-algae were inoculated into 250 ml conical flasks containing 100 ml of filtered, sterilized seawater in F/2-Guillard-1975 growth medium. The initial 10% spinosad emulsion (coded Entarco 8205 10%), was further dissolved in distilled water and added at various concentrations to each algal culture for final concentrations ranging from 10-^2 mg spinosad/ml to 10^−9 mg spinosad/ml. Controls consisted of algal culture without the test solution. Each test group was comprised of 3 flasks.
The typical culture goes through four phases. Lag phase is characterized by little or no multiplication of the cells. Log phase or exponential phase is when there is a rapid increase in the rate of cell division. During the next phase, called stationary phase, the number of living cells remain constant and there is no further growth. […] The growth of the algal cells in each flask was counted each day by haemocytometer. The entire growth and decline of the culture in the presence or absence of spinosad was determined (Targett, 1988 Allelochemistry in marine organisms: Chemical fouling and antifouling strategies).

## spinosad
[1]; 10^−1 mg/10 μl (10000 ppm spinosad)
  zone of inhibition: 7.5 mm
[1]; 10^−2 mg/10 μl (1000 ppm spinosad)
  zone of inhibition: 7 mm
[1]; 10^−3 mg/10 μl (100 ppm spinosad)
  zone of inhibition: 7 mm
[1]; 10^−4 mg/10 μl (10 ppm spinosad)
  zone of inhibition: 5.5 mm
[2]; isolate Al1, 10^−1 mg/10 μl (10000 ppm spinosad)
  zone of inhibition: 8 mm
[2]; isolate Al1, 10^−2 mg/10 μl (1000 ppm spinosad)
  zone of inhibition: 6 mm
[2]; isolate Al1, 10^−3 mg/10 μl (100 ppm spinosad)
  zone of inhibition: 6 mm
[2]; isolate Al1, 10^−4 mg/10 μl (10 ppm spinosad)
  zone of inhibition: 6 mm
[2]; isolate Al2, 10^−1 mg/10 μl (10000 ppm spinosad)
  zone of inhibition: 7 mm
[2]; isolate Al2, 10^−2 mg/10 μl (1000 ppm spinosad)
  zone of inhibition: 6.5 mm
[2]; isolate Al2, 10^−3 mg/10 μl (100 ppm spinosad)
  zone of inhibition: 5.5 mm
[2]; isolate Al2, 10^−4 mg/10 μl (10 ppm spinosad)
  zone of inhibition: 5.5 mm
[3]; isolate F1, 10^−1 mg/10 μl (10000 ppm spinosad)
  zone of inhibition: 7.5 mm
[3]; isolate F1, 10^−2 mg/10 μl (1000 ppm spinosad)
  zone of inhibition: 6 mm
[3]; isolate F1, 10^−3 mg/10 μl (100 ppm spinosad)
  zone of inhibition: 6 mm
[3]; isolate F1, 10^−4 mg/10 μl (10 ppm spinosad)
  zone of inhibition: 6 mm
[3]; isolate F2, 10^−1 mg/10 μl (10000 ppm spinosad)
  zone of inhibition: 7.5 mm
[3]; isolate F2, 10^−2 mg/10 μl (1000 ppm spinosad)
  zone of inhibition: 6 mm
[3]; isolate F2, 10^−3 mg/10 μl (100 ppm spinosad)
  zone of inhibition: 6 mm
[3]; isolate F2, 10^−4 mg/10 μl (10 ppm spinosad)
  zone of inhibition: 6 mm
[4]; isolate V1, 10^−1 mg/10 μl (10000 ppm spinosad)
  zone of inhibition: 8 mm
[4]; isolate V1, 10^−2 mg/10 μl (1000 ppm spinosad)
  zone of inhibition: 5.5 mm
[4]; isolate V1, 10^−3 mg/10 μl (100 ppm spinosad)
  zone of inhibition: 5.5 mm
[4]; isolate V1, 10^−4 mg/10 μl (10 ppm spinosad)
  zone of inhibition: 5.5 mm
[4]; isolate V2, 10^−1 mg/10 μl (10000 ppm spinosad)
  zone of inhibition: 8 mm
[4]; isolate V2, 10^−2 mg/10 μl (1000 ppm spinosad)
  zone of inhibition: 7 mm
[4]; isolate V2, 10^−3 mg/10 μl (100 ppm spinosad)
  zone of inhibition: 6 mm
[4]; isolate V2, 10^−4 mg/10 μl (10 ppm spinosad)
  zone of inhibition: 6 mm
[5]; 0.1 mg spinosad/ml
  % of set: 0%
[5]; 10−^2 mg spinosad/ml
  % of set: 0%
[5]; 10−^3 mg spinosad/ml
  % of set: 0%
[5]; 10−^4 mg spinosad/ml
  % of set: 0%
[5]; 10−^5 mg spinosad/ml
  % of set: 7% and 9% and 12%
[5]; 10−^7 mg spinosad/ml
  % of set: 31% and 34% and 42%
[5]; 10−^8 mg spinosad/ml
  % of set: 52% and 57% and 50%
[5]; 10−^9 mg spinosad/ml
  % of set: 63% and 61% and 70%
[5]; 10−^10 mg spinosad/ml
  % of set: 77% and 78% and 71%
[5]; 10−^11 mg spinosad/ml
  % of set: 77% and 79% and 72%
[5]; all concentrations tested
  mortality of cyprids: absence of any mortality; also recorded: no mortality seen at all concentrations tested
[5]; from 10^−1 to 10^−4 mg/ml
  cyprid settlement: no cyprid settlement
[5]; highest concentration used (0.1 mg spinosad/ml)
  mortality of cyprids: no mortality was observed
[5]; probit analysis
  EC50 on the settlement of barnacle cyprids: 0.07 ng/mL
[6]
  growth of Dunaliella tertiolecta (FIG. 1): significant microalgae inhibitory properties which are dose dependent
